Measured values from patent US20040180931A1, “Methods for treating Parkinson's disease” (priority 2000, published 2004).

Columns and labels:
Assay type in all cases: in vivo, humans
[1] = test system: patients with Parkinson's disease who were suffering from dementia; test: Mini-Mental State Examination (MMSE) in randomized, placebo-controlled, double-blind crossover study; details: 5 mg or 10 mg donepezil, 10 weeks, start of treatment to week 10
Protocol: (§1) A randomized, placebo-controlled, double-blind crossover study was conducted with fourteen patients with Parkinson's disease (13 men, 1 woman; mean age 78 (SD 3.6) years; mean duration of illness 11.4 (SD 4.9) years) who had developed cognitive impairments (mean Mini-Mental State Examination (MMSE) score 20.7 (SD 3.3)) 8.6 (SD 5.8) years after the onset of parkinsonism. […] At weeks 6 and 10 the patients completed a battery of cognitive tests. Cognitive impairments were measured using the MMSE and the CIBIC, a 7-point scale of the clinician's interview-based impression of change based upon information scored independently of the MMSE. Parkinsonism was assessed using the Unified Parkinson's Disease Rating Scale (UPDRS).

[2] = test system: patients with Parkinson's disease who were suffering from dementia; test: CIBIC+ (clinician's interview-based impression of change) in randomized, placebo-controlled, double-blind crossover study
Protocol: as §1

[3] = test system: patients with Parkinson's disease and mild or moderate dementia; test: Overall efficacy / cognitive function in crossover study
Protocol: as §1

COc1cc2c(cc1OC)C(=O)C(CC1CCN(Cc3ccccc3)CC1)C2 (stereo not drawn) [donepezil, 1-benzyl-4-((5,6-dimethoxy-1-indanon)-2-yl)methylpiperidine]
mean MMSE score difference from baseline to week 10 [1]: 2.1 points
mean CIBIC+ score at week 10 ([2]; 5 mg or 10 mg donepezil, week 10, 7-point scale): 3.3
CIBIC+ response rate (improvement, CIBIC+ score of 3 or lower) ([2]; 10 weeks of treatment): 42%
number of patients with improvement (CIBIC+ score of 3 or lower) ([2]; 10 weeks of treatment): 5 patients
all efficacy measures versus placebo ([3]; in vivo): numerical benefit
cognitive function ([3]; treated for 10 weeks): improvement
